Laboratory results from patent publication US20030166530A1, “Conjugate heat shock protein-binding peptides” (priority 1997, published 2003).
Ends that are not written are not given here.

Experiments:
[1] = 17- versus 19-substituted herbimycin derivative; cited from earlier work
[2] = biological target: T1, gp96 in the presence of herbimycin A (Mus musculus, UniProt P08113); experiment: Phage display affinity panning on gp96 in the presence of herbimycin A; type: binding; conditions: 20 mM HEPES pH 7.5, 100 mM KCl, 25 mM CaCl2, 5 mM MgAcetate, TWEEN-20; herbimycin A present
T1 construct: mouse cDNA encoding mature gp96 (i.e., wherein the endoplasmic reticulum signal peptide has been removed); made in house; host or cells: Escherichia coli BL21 (pET 11a)
Description: Preparation of a gp96 expression vector. The mouse cDNA encoding mature gp96 (i.e., wherein the endoplasmic reticulum signal peptide has been removed) was incorporated into the pET 11a expression vector (Novagen) as follows. Gp96 cDNA insert was prepared by polymerase chain reaction (PCR) of a pRc/CMV clone containing the cDNA using the following oligonucleotide primers: […]
Expression of gp96. pET11 gp96 was transformed into BL21 Escherichia coli cells, and plated on LB plates containing ampicillin (50μg/ml). One of the resulting colonies was used to inoculate a 20 ml overnight culture of 2×TY medium containing ampicillin (150 μg/ml). The following day, the resulting culture was spun down and the harvested bacteria were resuspended in 1 ml of fresh medium. Two one liter cultures were then each inoculated with 0.5 ml of the harvested cells and allowed to grow at 37° C. until the optical density, measured at 600 nm, was 0.5. Then, IPTG was added to a concentration of 1 mM and the cells were cultured for another 3 hours before being harvested by centrifugation. The resulting cell pellet was resuspended in 20 ml of 50 mM HEPES pH 7.5, 50 mM KCl, 5 mM MgAcetate, 20% sucrose and 1 mM PMSF. Cell extracts were prepared by pressure shearing in a French Press. The lysates were then spun at 100,000×g for 1.5 hours and the supernatant, which constituted crude gp96 extract, was collected. […]

[3] = system: OVA-primed EL-4 target cells; experiment: 51Cr release assay with effector cells from immunized mice; type: in vivo, C57BL/6 mice; conditions: mice immunized once or twice
Description: Preparation of hsp70 and/or peptide for use in immunization. Approximately 15 μg hsp70 and 12 μg OVA-BiP were mixed, on ice, to a final volume of 10 μL in Buffer Y (to produce a final concentration of 21.5 μM hsp70, 0.5 mM OVA-BiP, 20 mM HEPES pH 7.0, 150 mM KCl, 10 mM (NH4)2SO4, 2 mM MgCl2 and 2 mM MgADP, pH 7.0). The mixture was incubated for 30 minutes at 37° C. and was used for in vivo immunizations. Similar incubations were carried out with (i) 5 μl TiterMax adjuvant (Vaxcell, Norcross, Ga.) and 12 μg OVA-BiP (ii) 5 μl TiterMax and 5 μg OVA peptide or (iii) 12 μg OVA-BiP alone.
Preparation of cells for chromium release assay. […]
Chromium release assay. […] Supernatants were harvested and radioactivitiy released by cytotoxic activity was measured in a gamma counter. The percent specific lysis was calculated as 100×[(cpm release by CTL-cpm spontaneously released)/(cpm maximal release-cpm spontaneously released)]. Maximal release was determined by adding 1% NP-40 to lyse all cells. Spontaneous release of all target in the absence of effector cells (measured in a culture of target cells (in the absence of effector cells) maintained in parallel for the duration of the assay) was less than 20% of the maximal release.

[4] = system: EG7 cells; experiment: EG7 tumor cell challenge after immunization; type: in vivo, C57BL/6 mice; conditions: for tumor-free animals: eight mice per group
Description: C57BL/6 mice, 8-10 weeks old, were immunized intradermally with one of the following (eight mice in each group): (a)5 μl TiterMax and 5 μg OVA peptide; (b) 15 μg hsp70 and 5 μg OVA peptide; (c) 5 μl TiterMax and […] (OVA-BiP); (d) 15 μg hsp70 and 12 μg OVA-BiP; (e) control (four animals only in this group); (f) 5 μg OVA peptide; or (g) 12 μg OVA-BiP. The mice then were injected with 4×10^6 EG7 cells. Tumor size was evaluated over time by measuring two diameters, the greatest diameter and the diameter perpendicular to the greatest diameter, and then calculating the average diameter. The results are shown in FIG. 8A-G (corresponding to groups a-g, as set forth above).

[5] = peptide alone (without TiterMax or hsp70)

T1 sequence (P08113 22-802): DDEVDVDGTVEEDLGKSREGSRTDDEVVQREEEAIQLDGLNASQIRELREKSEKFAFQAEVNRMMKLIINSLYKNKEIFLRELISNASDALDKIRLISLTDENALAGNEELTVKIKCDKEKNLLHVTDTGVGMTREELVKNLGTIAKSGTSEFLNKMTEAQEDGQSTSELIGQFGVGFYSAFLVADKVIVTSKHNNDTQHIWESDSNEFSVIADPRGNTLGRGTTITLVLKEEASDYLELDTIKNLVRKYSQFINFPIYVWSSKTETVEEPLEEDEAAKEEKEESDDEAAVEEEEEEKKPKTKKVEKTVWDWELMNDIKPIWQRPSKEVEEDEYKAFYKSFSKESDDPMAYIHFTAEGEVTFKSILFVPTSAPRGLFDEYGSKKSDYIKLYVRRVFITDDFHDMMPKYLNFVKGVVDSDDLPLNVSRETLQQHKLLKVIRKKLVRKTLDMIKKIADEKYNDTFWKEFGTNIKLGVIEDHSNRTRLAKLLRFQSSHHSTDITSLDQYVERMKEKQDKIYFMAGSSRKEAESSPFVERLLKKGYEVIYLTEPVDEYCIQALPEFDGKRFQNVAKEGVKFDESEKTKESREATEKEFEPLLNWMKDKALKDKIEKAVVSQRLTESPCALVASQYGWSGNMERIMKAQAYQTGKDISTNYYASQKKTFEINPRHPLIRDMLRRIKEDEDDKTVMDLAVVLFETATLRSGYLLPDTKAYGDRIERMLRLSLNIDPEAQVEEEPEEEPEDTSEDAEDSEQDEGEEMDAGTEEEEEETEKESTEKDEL

17-allylamino herbimycin
relative activity [1]: more active than 19-allylamino herbimycin

Phe-His-Trp-Trp-Trp (FHWWW; printed: Phe-His-Trp-Trp-Trp) [SEQ ID NO:320]
binding of phage-expressed peptides to gp96 [2]: appeared to be favored

SIINFEKLGSGHWDFAWPW [OVA-BiP]
OVA-specific cytotoxic immune response (killing of OVA-primed EL-4 target cells) [3]: significant anti-OVA immune response | tumor diameter and detectable tumor formation ([4]; peptide administered with TiterMax adjuvant): superior to OVA peptide (FIG. 8A) in reducing tumor diameter and in preventing detectable tumor formation altogether | average tumor diameters ([4]; peptide alone (without TiterMax or hsp70), compared with OVA-peptide alone): average tumor diameters were smaller | tumor-free animals [4, 5]: 2/8

Ser Ile Ile Asn Phe Glu Lys Leu (SIINFEKL; printed: Ser Ile Ile Asn Phe Glu Lys Leu) [OVA-peptide, reference compound]
tumor-free animals [4, 5]: no animals were tumor-free
